According to PubChem BioAssay (NCI):
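Dose response: 5 concentrations. Exposure: 48 h. Format: 96-well plates. Endpoint: linear interpolation; highest concentration if not reached. At the TGI there is no net growth.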

Tests used:
Experiment in all cases: inhibition of tumour cell growth, NCI panel, 48 h
SNB-19 CNS = system: SNB-19 CNS
786-0 renal = system: 786-0 renal
SR leukemia = system: SR leukemia
SF-295 CNS = system: SF-295 CNS
UACC-257 melanoma = system: UACC-257 melanoma
HCC-2998 colon = system: HCC-2998 colon
K-562 leukemia = system: K-562 leukemia
CAKI-1 renal = system: CAKI-1 renal
KM12 colon = system: KM12 colon
NCI-H522 lung = system: NCI-H522 lung
A549 NSCLC = system: A549 NSCLC
TK-10 renal = system: TK-10 renal
COLO 205 colon = system: COLO 205 colon
OVCAR-3 ovarian = system: OVCAR-3 ovarian
DMS 273 small cell lung = system: DMS 273 small cell lung
UACC-62 melanoma = system: UACC-62 melanoma
EKVX NSCLC = system: EKVX NSCLC
SW-620 colon = system: SW-620 colon
HS 578T breast = system: HS 578T breast

SMILES	TGI (SNB-19 CNS)	TGI (786-0 renal)	TGI (SR leukemia)	TGI (SF-295 CNS)	TGI (UACC-257 melanoma)	TGI (HCC-2998 colon)	TGI (K-562 leukemia)	TGI (CAKI-1 renal)	TGI (KM12 colon)	TGI (NCI-H522 lung)	TGI (A549 NSCLC)	TGI (TK-10 renal)	TGI (COLO 205 colon)	TGI (OVCAR-3 ovarian)	TGI (DMS 273 small cell lung)	TGI (UACC-62 melanoma)	TGI (EKVX NSCLC)	TGI (SW-620 colon)	TGI (HS 578T breast)
CSc1ccc(OCC2OC2O)cc1 (stereo unspecified)	> 100 µM	> 100 µM	> 100 µM	> 100 µM	> 100 µM	> 100 µM	> 100 µM	> 76.6 µM	> 95.9 µM	> 81.6 µM	> 100 µM	> 100 µM	35.5 µM	> 100 µM	> 100 µM	> 100 µM	> 100 µM	> 30.7 µM	–
Cc1ccc(NCC(=O)N2CC(=O)Nc3ccccc32)cc1	> 100 µM	> 100 µM	> 100 µM	> 100 µM	> 100 µM	> 100 µM	> 100 µM	> 100 µM	> 100 µM	> 100 µM	> 100 µM	> 100 µM	> 100 µM	> 100 µM	> 100 µM	> 100 µM	> 100 µM	> 100 µM	–
Cc1ccc(S(=O)(=O)N2c3ccccc3[C@H]3CCC=C[C@H]32)cc1	> 100 µM	> 100 µM	65.2 µM	32.4 µM	> 95.4 µM	> 76.5 µM	> 81.3 µM	> 100 µM	45.7 µM	6.35 µM	> 100 µM	> 100 µM	24.6 µM	28.4 µM	18.9 µM	42.3 µM	> 92.6 µM	47.7 µM	86.3 µM
C[C@H](NC(=O)n1c2ccccc2c2ccccc21)C(=O)O	> 100 µM	> 100 µM	> 100 µM	> 100 µM	> 100 µM	> 100 µM	> 100 µM	> 100 µM	> 100 µM	> 100 µM	> 100 µM	> 100 µM	> 100 µM	> 100 µM	> 100 µM	> 100 µM	> 100 µM	> 100 µM	–
N#Cc1cc([N+](=O)[O-])ccc1NC(=O)C(F)(F)F	> 100 µM	> 89.5 µM	> 100 µM	> 100 µM	> 100 µM	> 100 µM	> 100 µM	> 100 µM	> 100 µM	> 100 µM	> 100 µM	> 100 µM	44.6 µM	> 100 µM	> 100 µM	> 100 µM	> 100 µM	> 55.8 µM	–
